The values below come from US8173654B2, “Triazolopyridazine compounds” (Janssen Pharmaceutica N.V., priority 2005, dated 2012).

SMILES strings stand for the structures.

Experiment [1] deals with U87MG glioblastoma tumors. Kind of experiment: U87MG glioblastoma tumor xenograft model (tumor growth inhibition). Type of experiment: in vivo, athymic nude mice. The conditions noted are these: for decrease of mean tumor volume compared to vehicle-treated group: Day 21, p<0.001. As for the experimental part:
The U87MG glioblsatoma cell line (Piedmont Research Center LLC) expresses the c-Met receptor and responds to Human Growth Factor (HGF). This study investigated whether treatment with an inhibitor of c-Met is efficacious against the U87MG glioblastoma tumor xenograft model. This study utilized a tumor growth inhibition (TGI) assay to test per os (p.o.) compound monotherapy in groups of fifteen nude mice. A control group was treated with vehicle, 20% Hydroxypropyl Beta-Cyclodextrin (HPBCD). All treatments began on Day 1 (D1) in mice bearing established subcutaneous (s.c.) U87MG tumors.
Female athymic nude mice (Harlan) were 10-11 weeks old with a BW range of 18.1-25.0 g on D1 of the study. The animals were fed ad libitum water (reverse osmosis, 1 ppm Cl) and NIH 31 Modified and Irradiated Lab Diet® consisting of 18.0% crude protein, 5.0% crude fat, and 5.0% crude fiber. The mice were housed on irradiated ALPHA-dri® Bed-o-cobs® Laboratory Animal Bedding in static microisolators on a 12-hour light cycle at 21-22° C. (70-72° F.) and 40-60% humidity. All animals were housed in a Laboratory Animal Medicine facility that is fully accredited by the American Association for Assessment and Accreditation of Laboratory Animal Care (AAALAC). All procedures involving animals were conducted in compliance with the NIH Guide for the Care and Use of Laboratory Animals and all protocols were approved by an Internal Animal Care and Use Committee (IACUC).
Xenografts were initiated from U87MG human glioblastoma tumor fragments maintained by serial transplantation in athymic nude mice. Each test mouse received a subcutaneous U87MG tumor fragment (1 mm^3) implanted in the right flank, and the growth of tumors was monitored as the average size approached 200 mm^3. Twelve days later, on Day 1 of the study, the animals were sorted into 4 groups (n=12-15 mice/group) with individual tumor volumes ranging from 172-352 mm^3 and group mean tumor volumes of 216 mm^3. Tumor volume was calculated using the formula:
[formula] where w=width and l=length in mm of the tumor. Tumor weight may be estimated with the assumption that 1 mg is equivalent to 1 mm^3 of tumor volume. Drug Treatment
Dosing solutions of compounds of the present invention were prepared fresh weekly in a vehicle consisting of 20% Hydroxypropyl Beta-Cyclodextrin (HPBCD) in water. In all groups, the dosing volume of 0.2 mL/20-g mouse was scaled to the body weight of each animal. Doses were given to allow for the HCl salt form of the compound.
TGI was calculated from the difference between the median tumor volumes of vehicle-treated and drug-treated mice, expressed as a percentage of the median tumor volume of the vehicle-treated control group, by the following relation:
The MTV (n) is defined as the median tumor volume (MTV) for the number of animals, n, remaining in the study on that day.
Animals were weighed daily for the first five days of the study and then twice weekly. The mice were examined frequently for overt signs of any adverse, drug-related side effects, and clinical signs of toxicity were recorded when observed. Acceptable toxicity is defined as a group mean body-weight (BW) loss of less than 20% during the study, and not more than one treatment-related (TR) death among ten animals. A death is classified as TR if it is attributable to treatment side effects as evidenced by clinical signs and/or necropsy, or due to unknown causes during the dosing period or within 10 days of the last dose. A death is classified as non treatment-related (NTR) if there is no evidence that the death was related to drug side effects. A death is classified as non treatment-related unknown (NTRu) if the cause of death is unknown.
The Mann-Whitney U-test, for analysis of medians, was used to determine the statistical significance of the difference between the MTVs. Prism 3.03 (GraphPad) for Windows was used for the statistical analyses and graphic presentations. […]

In experiment [2] the test system is HepG2 cells. Kind of experiment: HepG2 cellular scatter assay (HGF-induced, RT-CES impedance). Type of experiment: cell-based. The conditions noted are these: Homo sapiens, 40 ng/ml HGF. The source says:
Human Growth Factor (HGF) and its receptor (c-Met) are involved in cellular motility. Indeed HGF was also identified as Scatter Factor (SF), based on its powerful motility effect on certain cell types. Cellular motility is critical for pathological processes of oncologic disease, most importantly, the establishment of metastatic lesions distant from the primary tumor and formation of new blood vessels (angiogenesis). One therapeutic hypothesis is that this movement of cell types may be blunted or eliminated by the use of c-Met kinase inhibitors. (See: Jiang, W. C, Martin, T. A., Parr, C., Davies, G., Matsumoto, K. and Nakamura, T. Critical Reviews in Oncology/Hematology 53 (2005) 35-69. and references cited therein.) It should also be noted that cellular motility, especially with regard to angiogenesis, is important in other disease states.
Cellular scatter was measured with a Real-Time Cell Electronic Sensing system (RT-CES), from ACEA Biosciences Inc. (San Diego, Calif.). The RT-CES system uses specialized RT-ACE microtiter plates (cat:RCD96, ACEA Biosciences Inc.) to non-invasively quantify cellular status in real-time. The interaction of cells with the surface of the plates, which are integrated with microelectronic sensor arrays, leads to the generation of a cell-electrode impedance response. A higher impedance value indicates more cell attachment and thus less cellular scatter.
50 μl of Assay Media (MEM supplemented with 10% FBS, 2 mM L-glutamine, 1.5 g/L sodium bicarbonate, 1 mM sodium pyruvate, and 0.1 mM non-essential amino acids) was added into 96-well RT-ACE plates and recorded for 30 min on the RT-CES. 50 μl of HepG2 cells (cat: HB-8065, ATCC) were added into each well ([…]). The plate was read in RT-CES and incubated for 20-24 hours. After the 20-24 hours incubation, 50 μl of Assay Media containing different concentrations of testing compounds was added into each well and incubated for 1 hour. Finally, 50 μl of Assay Media containing 160 ng/ml of HGF was added into each well (40 ng/ml in 200 μl). The plate was incubated and read in the RT-CES for 20-24 hours, with a record time every 15 minutes. The positive control was HGF without compounds and negative control was no-HGF without compound. All determinations were performed in duplicate wells and IC50 values were calculated using GraphPad Prism software (GraphPad Software; San Diego, Calif.).

Experiment [3] addresses T1, c-Met (Homo sapiens, UniProt P08581). Kind of experiment: Cell based ELISA assay for HGF stimulated c-Met phosphorylation in S114 cells. Also on record: expressed in transfected cells; host or cells: S114 (murine NIH 3T3 derived). The following applies: read-out: c-Met Cell ELISA IC-50. In general terms: In an ELISA, binding on a coated surface is turned into a signal by an enzyme label.
Target sequence in this assay (P08581 25-1390): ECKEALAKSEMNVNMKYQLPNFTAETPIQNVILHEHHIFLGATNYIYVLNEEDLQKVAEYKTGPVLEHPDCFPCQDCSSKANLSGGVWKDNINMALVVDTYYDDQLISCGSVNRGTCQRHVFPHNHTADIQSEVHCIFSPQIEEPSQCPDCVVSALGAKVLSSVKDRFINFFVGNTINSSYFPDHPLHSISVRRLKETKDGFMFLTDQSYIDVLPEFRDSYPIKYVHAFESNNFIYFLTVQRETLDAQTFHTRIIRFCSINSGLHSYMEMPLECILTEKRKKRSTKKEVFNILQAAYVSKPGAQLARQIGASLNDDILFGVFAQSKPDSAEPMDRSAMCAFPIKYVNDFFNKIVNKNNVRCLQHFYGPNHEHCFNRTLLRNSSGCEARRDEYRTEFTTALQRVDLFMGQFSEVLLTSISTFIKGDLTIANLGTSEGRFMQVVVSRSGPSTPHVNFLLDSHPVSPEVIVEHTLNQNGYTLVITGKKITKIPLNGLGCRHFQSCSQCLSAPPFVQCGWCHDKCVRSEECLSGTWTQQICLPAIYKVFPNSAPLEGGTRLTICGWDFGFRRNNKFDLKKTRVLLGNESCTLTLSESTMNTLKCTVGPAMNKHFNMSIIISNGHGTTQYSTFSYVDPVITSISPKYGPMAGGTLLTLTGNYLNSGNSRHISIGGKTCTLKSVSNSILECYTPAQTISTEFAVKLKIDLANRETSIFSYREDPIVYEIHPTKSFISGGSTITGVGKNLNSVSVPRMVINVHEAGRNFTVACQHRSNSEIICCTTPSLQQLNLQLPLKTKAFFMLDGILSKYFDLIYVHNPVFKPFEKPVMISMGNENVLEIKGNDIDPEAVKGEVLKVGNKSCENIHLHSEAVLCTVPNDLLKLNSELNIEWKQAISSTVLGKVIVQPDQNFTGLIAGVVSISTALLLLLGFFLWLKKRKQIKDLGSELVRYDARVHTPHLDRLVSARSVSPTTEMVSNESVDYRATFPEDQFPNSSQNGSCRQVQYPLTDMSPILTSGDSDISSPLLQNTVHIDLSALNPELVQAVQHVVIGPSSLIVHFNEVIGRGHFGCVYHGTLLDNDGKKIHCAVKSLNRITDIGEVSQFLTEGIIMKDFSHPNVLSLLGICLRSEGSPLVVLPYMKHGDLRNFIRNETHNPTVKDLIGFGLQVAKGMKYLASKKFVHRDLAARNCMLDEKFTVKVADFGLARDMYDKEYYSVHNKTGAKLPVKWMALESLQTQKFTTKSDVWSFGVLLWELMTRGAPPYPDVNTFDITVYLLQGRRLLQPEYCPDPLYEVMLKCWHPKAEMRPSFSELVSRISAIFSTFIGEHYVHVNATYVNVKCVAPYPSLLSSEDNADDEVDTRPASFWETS

Experiment [4] has as its target T1, c-Met. The experiment is described as follows: Delfia autophosphorylation kinase assay on the c-Met. Type of experiment: biochemical. Further details: The purified His6 tagged cytoplasmic domain of c-Met was diluted to a concentration of 500 ng/ml; host or cells: Sf9 insect cells (baculovirus, pFastBacHTa). The conditions noted are these: His6 tagged cytoplasmic domain of c-Met, 1 μM ATP; read-out: cMet Delfia autophos IC-50. The method in brief: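 Time-resolved fluorescence tracked autophosphorylation of the His6-tagged c-Met cytoplasmic domain, dispensed at 500 ng/ml onto nickel-chelate plates. Reaction buffer held 1 μM ATP, 10 mM MgCl2, vanadate and DTT at pH 8.0, for 1 h at room temperature.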
Target sequence in this assay (P08581 956-1390 limits assumed): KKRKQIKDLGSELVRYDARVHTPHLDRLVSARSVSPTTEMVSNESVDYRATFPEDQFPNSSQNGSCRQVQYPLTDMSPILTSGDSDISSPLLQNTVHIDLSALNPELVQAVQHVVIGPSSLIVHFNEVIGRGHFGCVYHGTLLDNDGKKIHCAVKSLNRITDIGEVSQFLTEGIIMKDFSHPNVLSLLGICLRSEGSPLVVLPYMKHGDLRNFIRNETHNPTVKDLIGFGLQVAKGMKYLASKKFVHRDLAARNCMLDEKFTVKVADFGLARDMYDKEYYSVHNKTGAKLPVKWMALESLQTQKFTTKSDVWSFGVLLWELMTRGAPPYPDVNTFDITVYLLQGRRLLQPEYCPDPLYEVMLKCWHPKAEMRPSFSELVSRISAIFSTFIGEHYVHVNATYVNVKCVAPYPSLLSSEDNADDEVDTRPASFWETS

Consider `Cn1cc(-c2ccc3nnc(Cc4ccc5ncccc5c4)n3n2)cn1` [Example 1, 6-[6-(1-Methyl-1H-pyrazol-4-yl)-[1,2,4]triazolo[4,3-b]pyridazin-3-ylmethyl]-quinoline], for which the “decrease of mean tumor volume compared to vehicle-treated group” value in experiment [1] (30 mg/kg p.o. b.i.d., 21 consecutive days) is reported as 66%; in experiment [1] (50 mg/kg p.o. b.i.d., 21 consecutive days), 97%. The tumor regression result in experiment [1] (50 mg/kg p.o. b.i.d., 21 days) is on record as “Tumor regression was observed”. In addition, the “inhibition of growth of U87MG tumors” value in experiment [1] (30 and 50 mg/kg p.o. b.i.d., 21 consecutive days) is listed as “statistically significant, dose-dependent inhibition of growth”.

In the case of `FC(F)(c1ccc2ncccc2c1)c1nnc2ccc(-c3ccncc3)nn12` [Example 60, 6-[Difluoro-(6-pyridin-4-yl-[1,2,4]triazolo[4,3-b]pyridazin-3-yl)-methyl]-quinoline], the IC50 was determined as 287 nM in experiment [2], 12 nM in experiment [3] and 1 nM in experiment [4].

As for `Cc1cc(-c2ccc3nnc(C(F)(F)c4ccc5ncccc5c4)n3n2)ccn1` [Example 86, 6-{Difluoro-[6-(2-methyl-pyridin-4-yl)-[1,2,4]triazolo[4,3-b]pyridazin-3-yl]-methyl}-quinoline], the figures for the IC50 in experiment [2], in experiment [3] and in experiment [4] were 715 nM, 34 nM and 2.8 nM, respectively.

For `CN1CCN(C(=O)c2ccc(-c3ccc4nnc(C(F)(F)c5ccc6ncccc6c5)n4n3)s2)CC1` [Example 97, {5-[3-(Difluoro-quinolin-6-yl-methyl)-[1,2,4]triazolo[4,3-b]pyridazin-6-yl]thiophen-2-yl}-(4-methyl-piperazin-1-yl)-methanone], the IC50 in experiment [2] is 1160 nM; in experiment [3], 3 nM; in experiment [4], 3 nM.

For `CS(=O)(=O)N1CCN(C(=O)c2ccc(-c3ccc4nnc(C(F)(F)c5ccc6ncccc6c5)n4n3)s2)CC1` [Example 98, {5-[3-(Difluoro-quinolin-6-yl-methyl)-[1,2,4]triazolo[4,3-b]pyridazin-6-yl]-thiophen-2-yl}-(4-methanesulfonyl-piperazin-1-yl)-methanone], the IC50 in experiment [2] came to 64 nM; in experiment [3], 4 nM; in experiment [4] it was 2 nM.

For `CS(=O)(=O)n1cc(-c2ccc3nnc(C(F)(F)c4ccc5ncccc5c4)n3n2)cn1` [Example 99, 6-{Difluoro-[6-(1-methanesulfonyl-1H-pyrazol-4-yl)-[1,2,4]triazolo[4,3-b]pyridazin-3-yl]-methyl}-quinoline], the figures for the IC50 in experiment [2], in experiment [3] and in experiment [4] were 1100 nM, 34 nM and 2 nM, respectively.

`CCCc1ncc(-c2ccc3nnc(C(F)(F)c4ccc5ncccc5c4)n3n2)s1` [Example 104, 6-{Difluoro-[6-(2-propyl-thiazol-5-yl)-[1,2,4]triazolo[4,3-b]pyridazin-3-yl]-methyl}-quinoline]: the IC50 in experiment [2] worked out at 543 nM; in experiment [3], 37 nM; in experiment [4] it was 2 nM.
